Calls of active or inactive are those of the source.
Columns and labels:
[1] = biological target: T1, Cytochrome P450 3A4 (Homo sapiens, UniProt P08684); settings: Potency
[2] = biological target: Neurotensin receptor type 1 (Homo sapiens, UniProt P30989); format: functional;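 also: Image-based confirmatory dose-response assay measuring agonist activity at NTR1; NTR1-expressing U2OS osteosarcoma cells imaged for beta-arrestin GFP spot formation; agonist potency where compounds increase beta-arrestin recruitment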
Chain of Neurotensin receptor type 1 (P30989 whole entry): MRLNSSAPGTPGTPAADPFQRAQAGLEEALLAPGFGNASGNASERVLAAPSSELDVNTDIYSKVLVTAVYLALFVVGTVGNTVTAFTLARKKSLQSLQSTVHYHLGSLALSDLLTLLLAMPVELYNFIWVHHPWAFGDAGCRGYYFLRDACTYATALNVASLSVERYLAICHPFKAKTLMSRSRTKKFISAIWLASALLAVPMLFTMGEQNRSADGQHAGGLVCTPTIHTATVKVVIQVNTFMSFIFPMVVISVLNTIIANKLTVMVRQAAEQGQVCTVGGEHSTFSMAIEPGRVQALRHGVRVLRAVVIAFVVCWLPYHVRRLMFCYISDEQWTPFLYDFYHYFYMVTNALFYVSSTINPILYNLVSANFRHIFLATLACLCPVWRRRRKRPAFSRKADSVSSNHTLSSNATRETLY

[3] = biological target: T2, Streptokinase A (Streptococcus pyogenes serotype M1, UniProt P10520); experiment: S. pyogenes streptokinase expression inhibitors, potency, dose response, plasminogen activation absorbance, OD405 (AID 1914); format: functional, Streptococcus pyogenes M1 GAS;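 also: secreted streptokinase activity via plasminogen activation per viability signal from cell pellet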
T2 sequence (P10520 whole entry): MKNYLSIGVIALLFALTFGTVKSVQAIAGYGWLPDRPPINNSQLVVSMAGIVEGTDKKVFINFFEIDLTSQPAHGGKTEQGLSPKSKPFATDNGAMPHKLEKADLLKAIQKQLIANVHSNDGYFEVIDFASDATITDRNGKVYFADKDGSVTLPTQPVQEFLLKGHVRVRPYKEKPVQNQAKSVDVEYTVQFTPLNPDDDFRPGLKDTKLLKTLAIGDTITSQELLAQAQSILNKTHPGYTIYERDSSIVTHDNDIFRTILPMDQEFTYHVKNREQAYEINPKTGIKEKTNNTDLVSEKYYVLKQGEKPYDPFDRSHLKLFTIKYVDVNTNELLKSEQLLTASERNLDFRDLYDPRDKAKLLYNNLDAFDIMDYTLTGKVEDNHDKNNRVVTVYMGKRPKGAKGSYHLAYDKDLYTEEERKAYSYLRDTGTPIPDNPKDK

[4] = system: Streptococcus sp. 'group A'; experiment: growth inhibition of control SK(-) GAS strain, dose response, counter-screen for streptokinase expression inhibitor project, luminescence, kanamycin, BacTiterGlo, confirmation (AID 1900); format: functional, organism-based
[5] = system: Streptococcus; experiment: Group A Streptococcus viability loss, dose response, counter-screen for streptokinase expression inhibitor project, luminescence, BacTiterGlo (AID 1915); format: functional, organism-based;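 also: potency for reduction of bacterial viability or growth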
[6] = HepG2 cell cytotoxicity, dose response, cytotoxicity control for non-replicating M. tuberculosis project (AID 489018); format: functional; settings: Mycobacterium tuberculosis
[7] = THP-1 cell cytotoxicity, dose response, cytotoxicity control for non-replicating M. tuberculosis project (AID 489025); format: functional
[8] = cells; format: functional
[9] = Vero E6 cell cytotoxicity, dose response, cytotoxicity control for non-replicating M. tuberculosis project, secondary assay (AID 492998); format: functional, VeroE6; settings: Vero C1008
[10] = biological target: Voltage-dependent T-type calcium channel subunit alpha-1H (Homo sapiens, UniProt O95180); format: functional;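 also: channel activity triggered by adding a high calcium stimulation buffer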
Chain of Voltage-dependent T-type calcium channel subunit alpha-1H (O95180 whole entry): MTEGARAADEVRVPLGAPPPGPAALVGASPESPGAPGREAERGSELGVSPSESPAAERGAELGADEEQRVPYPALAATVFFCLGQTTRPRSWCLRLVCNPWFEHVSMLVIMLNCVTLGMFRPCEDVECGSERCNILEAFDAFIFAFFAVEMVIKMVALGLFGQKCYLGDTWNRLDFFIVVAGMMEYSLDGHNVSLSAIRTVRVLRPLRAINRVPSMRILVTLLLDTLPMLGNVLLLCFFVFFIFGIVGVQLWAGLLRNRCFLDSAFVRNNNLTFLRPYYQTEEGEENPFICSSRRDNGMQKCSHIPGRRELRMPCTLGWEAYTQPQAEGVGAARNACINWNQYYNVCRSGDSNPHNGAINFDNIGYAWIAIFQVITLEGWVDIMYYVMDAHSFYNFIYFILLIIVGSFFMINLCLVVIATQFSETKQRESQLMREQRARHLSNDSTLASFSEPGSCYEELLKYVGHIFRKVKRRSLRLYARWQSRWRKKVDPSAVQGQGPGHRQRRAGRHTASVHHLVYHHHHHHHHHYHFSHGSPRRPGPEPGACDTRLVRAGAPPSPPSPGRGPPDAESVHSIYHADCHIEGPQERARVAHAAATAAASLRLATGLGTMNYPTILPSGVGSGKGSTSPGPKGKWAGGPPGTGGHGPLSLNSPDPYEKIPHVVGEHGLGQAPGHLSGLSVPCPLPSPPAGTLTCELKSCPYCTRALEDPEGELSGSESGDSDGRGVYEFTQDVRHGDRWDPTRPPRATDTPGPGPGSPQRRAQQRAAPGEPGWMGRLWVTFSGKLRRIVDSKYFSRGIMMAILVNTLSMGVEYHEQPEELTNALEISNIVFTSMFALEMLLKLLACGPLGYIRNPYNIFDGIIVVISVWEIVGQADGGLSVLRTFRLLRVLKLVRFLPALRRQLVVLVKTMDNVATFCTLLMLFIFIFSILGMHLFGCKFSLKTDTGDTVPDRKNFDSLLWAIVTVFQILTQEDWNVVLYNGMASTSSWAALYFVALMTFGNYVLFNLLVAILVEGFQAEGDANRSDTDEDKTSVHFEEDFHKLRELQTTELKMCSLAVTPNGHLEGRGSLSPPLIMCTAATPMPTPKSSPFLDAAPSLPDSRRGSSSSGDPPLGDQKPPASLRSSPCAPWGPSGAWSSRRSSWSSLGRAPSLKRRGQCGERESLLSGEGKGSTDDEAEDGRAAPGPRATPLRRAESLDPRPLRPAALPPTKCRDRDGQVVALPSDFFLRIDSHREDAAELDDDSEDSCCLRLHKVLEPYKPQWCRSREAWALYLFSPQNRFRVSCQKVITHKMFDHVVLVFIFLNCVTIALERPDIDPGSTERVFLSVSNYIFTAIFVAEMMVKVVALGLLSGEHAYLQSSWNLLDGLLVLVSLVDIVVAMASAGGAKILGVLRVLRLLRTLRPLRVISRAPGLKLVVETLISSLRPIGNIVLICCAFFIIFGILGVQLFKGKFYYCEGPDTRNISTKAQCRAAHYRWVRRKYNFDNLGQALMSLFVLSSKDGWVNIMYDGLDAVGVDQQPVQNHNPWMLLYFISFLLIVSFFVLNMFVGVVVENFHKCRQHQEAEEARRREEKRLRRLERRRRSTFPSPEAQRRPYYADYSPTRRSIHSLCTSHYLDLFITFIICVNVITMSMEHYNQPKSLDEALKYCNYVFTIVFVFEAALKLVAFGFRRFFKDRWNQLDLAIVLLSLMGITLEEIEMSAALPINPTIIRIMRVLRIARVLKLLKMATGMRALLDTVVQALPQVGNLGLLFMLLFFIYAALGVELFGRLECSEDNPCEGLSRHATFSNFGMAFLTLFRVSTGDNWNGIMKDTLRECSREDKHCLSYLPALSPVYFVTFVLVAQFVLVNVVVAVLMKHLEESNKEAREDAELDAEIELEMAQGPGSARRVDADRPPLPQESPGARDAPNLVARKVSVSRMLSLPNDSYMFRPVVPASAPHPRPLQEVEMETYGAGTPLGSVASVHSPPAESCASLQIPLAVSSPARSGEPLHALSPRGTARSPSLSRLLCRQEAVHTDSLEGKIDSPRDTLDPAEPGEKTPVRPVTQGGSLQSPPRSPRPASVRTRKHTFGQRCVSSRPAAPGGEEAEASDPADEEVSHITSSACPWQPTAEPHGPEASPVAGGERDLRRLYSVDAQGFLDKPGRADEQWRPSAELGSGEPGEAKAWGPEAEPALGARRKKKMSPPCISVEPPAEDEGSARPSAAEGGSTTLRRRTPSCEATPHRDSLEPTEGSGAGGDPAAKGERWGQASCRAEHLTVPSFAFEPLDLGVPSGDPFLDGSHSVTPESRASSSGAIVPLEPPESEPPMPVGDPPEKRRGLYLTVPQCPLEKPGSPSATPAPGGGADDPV

[11] = system: INS1; experiment: beta cell apoptosis inhibitors, cytokine rescue, dose response, luminescence, retest (AID 449756); format: functional, cell-based; settings: Rattus norvegicus;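 also: cell death triggered by IL-1 beta plus TNF-alpha plus IFN-gamma mixture; protective hits raise ATP signal compared with cytokine alone wells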
[12] = biological target: T1, Cytochrome P450 3A4
[13] = biological target: Ion channel NompC (Danio rerio, UniProt Q7T1G6); experiment: Fluorescence counterscreen assay for TRPML3 agonists: dose response cell-based high-throughput screening assay to identify agonists of the transient receptor potential channel N1 (TRPN1). [Related pubchem assays: 1526, 1424, 1448 ]; format: functional
Chain of Ion channel NompC (Q7T1G6 whole entry): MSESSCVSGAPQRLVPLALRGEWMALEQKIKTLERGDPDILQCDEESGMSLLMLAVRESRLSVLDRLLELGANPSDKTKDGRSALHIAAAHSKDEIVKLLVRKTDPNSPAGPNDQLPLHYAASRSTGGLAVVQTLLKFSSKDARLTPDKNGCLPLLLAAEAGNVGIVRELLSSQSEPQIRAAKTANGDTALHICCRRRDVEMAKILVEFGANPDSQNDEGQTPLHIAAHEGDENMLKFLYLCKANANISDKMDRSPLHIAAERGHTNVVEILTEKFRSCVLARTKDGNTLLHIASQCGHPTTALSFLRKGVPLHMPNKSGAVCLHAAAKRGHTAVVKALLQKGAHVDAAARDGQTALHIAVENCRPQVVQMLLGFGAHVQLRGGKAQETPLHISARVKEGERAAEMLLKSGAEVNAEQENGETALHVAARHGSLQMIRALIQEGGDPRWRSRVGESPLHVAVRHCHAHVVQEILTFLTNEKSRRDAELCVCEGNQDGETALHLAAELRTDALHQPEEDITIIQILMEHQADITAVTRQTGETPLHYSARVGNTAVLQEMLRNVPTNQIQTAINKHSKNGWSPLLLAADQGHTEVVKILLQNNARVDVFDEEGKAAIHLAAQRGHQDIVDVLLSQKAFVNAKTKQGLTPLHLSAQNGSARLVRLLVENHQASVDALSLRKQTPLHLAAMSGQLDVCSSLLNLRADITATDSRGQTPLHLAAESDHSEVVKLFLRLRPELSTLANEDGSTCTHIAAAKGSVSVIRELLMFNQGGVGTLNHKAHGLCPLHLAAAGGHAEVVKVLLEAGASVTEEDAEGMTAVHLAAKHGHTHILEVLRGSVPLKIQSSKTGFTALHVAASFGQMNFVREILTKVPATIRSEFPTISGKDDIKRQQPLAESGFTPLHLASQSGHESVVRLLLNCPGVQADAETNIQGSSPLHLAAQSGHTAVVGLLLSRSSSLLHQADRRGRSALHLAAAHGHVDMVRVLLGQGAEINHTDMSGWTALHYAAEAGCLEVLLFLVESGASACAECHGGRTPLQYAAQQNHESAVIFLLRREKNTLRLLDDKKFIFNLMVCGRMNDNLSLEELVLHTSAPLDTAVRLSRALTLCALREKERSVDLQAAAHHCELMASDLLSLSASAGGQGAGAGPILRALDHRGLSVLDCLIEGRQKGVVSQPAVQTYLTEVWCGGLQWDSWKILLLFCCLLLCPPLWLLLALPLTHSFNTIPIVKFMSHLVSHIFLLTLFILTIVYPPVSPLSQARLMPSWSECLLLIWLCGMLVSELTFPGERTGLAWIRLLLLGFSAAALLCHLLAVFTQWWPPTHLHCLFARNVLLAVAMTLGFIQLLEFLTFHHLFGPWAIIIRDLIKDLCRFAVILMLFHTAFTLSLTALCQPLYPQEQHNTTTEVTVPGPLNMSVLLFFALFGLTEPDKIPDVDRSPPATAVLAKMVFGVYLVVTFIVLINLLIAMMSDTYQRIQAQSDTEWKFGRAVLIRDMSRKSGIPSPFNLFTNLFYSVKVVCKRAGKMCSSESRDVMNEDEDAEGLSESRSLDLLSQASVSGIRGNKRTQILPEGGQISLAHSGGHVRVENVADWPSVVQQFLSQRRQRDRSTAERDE

[14] = biological target: T3, Mucolipin-3 (Homo sapiens, UniProt Q8TDD5); experiment: Dose response cell-based high-throughput screening assay for agonists of the transient receptor potential channel ML3 (TRPML3). [Related pubchem assays: 1526, 1424, 1448 ]; format: functional
T3 sequence (Q8TDD5 whole entry): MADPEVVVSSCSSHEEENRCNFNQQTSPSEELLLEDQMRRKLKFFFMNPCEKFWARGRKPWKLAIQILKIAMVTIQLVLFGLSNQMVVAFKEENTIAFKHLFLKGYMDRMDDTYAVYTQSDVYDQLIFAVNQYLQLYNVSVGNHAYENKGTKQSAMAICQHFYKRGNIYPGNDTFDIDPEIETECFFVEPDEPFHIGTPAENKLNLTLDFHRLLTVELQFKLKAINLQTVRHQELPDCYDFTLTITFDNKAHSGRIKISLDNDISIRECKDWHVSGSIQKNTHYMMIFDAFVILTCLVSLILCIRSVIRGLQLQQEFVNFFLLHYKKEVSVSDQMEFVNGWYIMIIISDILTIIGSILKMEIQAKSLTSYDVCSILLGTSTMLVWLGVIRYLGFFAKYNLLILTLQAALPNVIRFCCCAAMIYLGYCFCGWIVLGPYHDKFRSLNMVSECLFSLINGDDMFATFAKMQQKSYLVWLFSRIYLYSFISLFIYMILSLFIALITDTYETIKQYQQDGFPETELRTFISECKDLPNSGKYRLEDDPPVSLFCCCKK

[15] = biological target: Beta-galactosidase (Escherichia coli, UniProt Q8VNN2); experiment: beta-galactosidase enzyme inhibitors and activators, dose response, artefact control for CCR6 antagonist project, biochemical, E. coli enzyme, set 3 (AID 504712); format: functional
[16] = biological target: T4, Heat shock factor protein 1 (Mus musculus, UniProt P38532); experiment: HSF1 potentiators in luciferase reporter cells, confirmation, cell-based, NIH3T3, luminescence, dose retest (AID 435004); format: functional;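 also: stress induced by proteasome inhibitor MG132 added 30 min after compound; luciferase reporter driven by HSF1 response element in NIH3T3 cells; actives raise luminescence as potentiators of the MG132 stress response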
T4 sequence (P38532 whole entry): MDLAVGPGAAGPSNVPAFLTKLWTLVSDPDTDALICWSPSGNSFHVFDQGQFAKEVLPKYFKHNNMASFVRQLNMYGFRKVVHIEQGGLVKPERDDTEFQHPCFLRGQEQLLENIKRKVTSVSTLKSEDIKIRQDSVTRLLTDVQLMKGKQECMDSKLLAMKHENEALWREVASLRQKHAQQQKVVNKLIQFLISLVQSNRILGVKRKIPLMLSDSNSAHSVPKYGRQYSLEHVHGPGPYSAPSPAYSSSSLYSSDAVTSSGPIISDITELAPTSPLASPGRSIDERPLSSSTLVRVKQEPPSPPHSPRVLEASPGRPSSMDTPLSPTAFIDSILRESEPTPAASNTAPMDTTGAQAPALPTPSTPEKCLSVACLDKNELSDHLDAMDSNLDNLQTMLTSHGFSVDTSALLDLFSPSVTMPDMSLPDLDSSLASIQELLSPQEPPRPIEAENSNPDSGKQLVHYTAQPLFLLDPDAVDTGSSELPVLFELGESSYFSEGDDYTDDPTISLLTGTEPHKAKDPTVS

[17] = biological target: T5, Corticotropin-releasing factor receptor 2/Corticotropin-releasing factor-binding protein (Homo sapiens, UniProt P24387+Q13324); experiment: activators of CRF receptor 2 with binding protein – uHTS hits, confirmation (AID 602473); format: functional; settings: read-out: EC50_Mean
T5 sequence (Q13324 whole entry): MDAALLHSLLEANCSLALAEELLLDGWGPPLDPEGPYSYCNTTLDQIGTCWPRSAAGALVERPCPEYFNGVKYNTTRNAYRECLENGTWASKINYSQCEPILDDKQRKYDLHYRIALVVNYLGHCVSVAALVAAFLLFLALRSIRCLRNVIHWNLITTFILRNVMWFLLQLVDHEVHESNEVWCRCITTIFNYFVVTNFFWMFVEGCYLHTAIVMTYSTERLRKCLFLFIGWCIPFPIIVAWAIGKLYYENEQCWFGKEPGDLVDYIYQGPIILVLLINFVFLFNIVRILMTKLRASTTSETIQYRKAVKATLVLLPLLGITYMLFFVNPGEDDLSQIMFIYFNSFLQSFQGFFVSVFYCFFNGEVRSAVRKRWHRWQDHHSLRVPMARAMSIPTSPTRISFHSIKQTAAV
T5 sequence (P24387 whole entry): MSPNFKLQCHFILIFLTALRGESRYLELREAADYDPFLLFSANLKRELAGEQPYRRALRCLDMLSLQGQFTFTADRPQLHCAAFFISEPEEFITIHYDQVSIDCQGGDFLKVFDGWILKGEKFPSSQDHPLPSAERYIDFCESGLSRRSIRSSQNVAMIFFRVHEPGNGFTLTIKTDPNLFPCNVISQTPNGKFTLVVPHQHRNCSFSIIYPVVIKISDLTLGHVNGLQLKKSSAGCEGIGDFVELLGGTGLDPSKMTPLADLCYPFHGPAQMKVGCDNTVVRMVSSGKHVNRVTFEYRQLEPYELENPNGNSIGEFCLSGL

[18] = cytotoxicity toward NIH3T3 fibroblasts, dose response, counter-screen, cell-based, ATP luminescence, mouse fibroblasts (AID 2010); format: functional;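 also: cells exposed to compound for about 90 hours before reading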
[19] = cells
[20] = inhibitors of intracellular T. cruzi replication, confirmation, NIH3T3 host cells, beta-gal luminescence (AID 2044); format: functional, cell-based;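 also: intracellular parasites grown in NIH/3T3 mouse fibroblasts as host cells; luminescent beta-galactosidase reporter signal from transgenic T. cruzi replicating inside host cells; inhibitors lower the luminescence signal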
[21] = biological target: T5, Corticotropin-releasing factor receptor 2/Corticotropin-releasing factor-binding protein; experiment: Dose Response confirmation of uHTS hits for small molecule antagonists of the CRF-binding protein and CRF-R2 receptor complex.; format: functional; settings: read-out: IC50_Mean
[22] = biological target: T6, High affinity choline transporter 1 (Homo sapiens, UniProt Q9GZV3); experiment: CHT inhibitors, dose response, cell-based, 5-point CRC, membrane potential dye (AID 504840); format: functional
T6 sequence (Q9GZV3 whole entry): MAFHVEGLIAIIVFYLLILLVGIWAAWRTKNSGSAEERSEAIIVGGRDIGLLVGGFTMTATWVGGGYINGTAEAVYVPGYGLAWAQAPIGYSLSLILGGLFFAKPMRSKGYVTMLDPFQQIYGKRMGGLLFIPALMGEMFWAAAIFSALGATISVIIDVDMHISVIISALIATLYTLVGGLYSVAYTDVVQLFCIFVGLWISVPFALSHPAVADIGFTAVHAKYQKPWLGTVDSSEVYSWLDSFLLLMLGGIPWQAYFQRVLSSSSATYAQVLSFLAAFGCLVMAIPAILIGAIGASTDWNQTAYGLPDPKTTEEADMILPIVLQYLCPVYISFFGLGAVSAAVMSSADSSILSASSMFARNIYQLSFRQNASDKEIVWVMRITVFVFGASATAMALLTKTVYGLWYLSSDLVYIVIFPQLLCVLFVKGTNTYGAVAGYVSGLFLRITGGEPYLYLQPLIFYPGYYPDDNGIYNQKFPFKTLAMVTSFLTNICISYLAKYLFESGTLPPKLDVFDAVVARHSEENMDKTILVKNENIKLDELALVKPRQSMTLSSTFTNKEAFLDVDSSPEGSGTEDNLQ

[23] = NIH-3T3 fibroblast cytotoxicity, dose response, cytotoxicity control, cell-based, fluorescence, Alamar Blue, secondary assay (AID 2327); format: functional;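 also: NIH-3T3 mouse fibroblasts cultured with fluconazole at 8 µg/mL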
[24] = C. albicans growth with fluconazole, confirmation, fluorescence, retest (AID 2467); format: functional, cell-based
[25] = cytotoxicity in HEK-293T cells, dose response, cytotoxicity control for TCR NF-kB inhibitor project, luminescence, T-cell screen hits (AID 489026); format: functional, cell-based;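 also: cells exposed to compound about 14 hours before the viability readout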

T1 sequence (P08684 whole entry): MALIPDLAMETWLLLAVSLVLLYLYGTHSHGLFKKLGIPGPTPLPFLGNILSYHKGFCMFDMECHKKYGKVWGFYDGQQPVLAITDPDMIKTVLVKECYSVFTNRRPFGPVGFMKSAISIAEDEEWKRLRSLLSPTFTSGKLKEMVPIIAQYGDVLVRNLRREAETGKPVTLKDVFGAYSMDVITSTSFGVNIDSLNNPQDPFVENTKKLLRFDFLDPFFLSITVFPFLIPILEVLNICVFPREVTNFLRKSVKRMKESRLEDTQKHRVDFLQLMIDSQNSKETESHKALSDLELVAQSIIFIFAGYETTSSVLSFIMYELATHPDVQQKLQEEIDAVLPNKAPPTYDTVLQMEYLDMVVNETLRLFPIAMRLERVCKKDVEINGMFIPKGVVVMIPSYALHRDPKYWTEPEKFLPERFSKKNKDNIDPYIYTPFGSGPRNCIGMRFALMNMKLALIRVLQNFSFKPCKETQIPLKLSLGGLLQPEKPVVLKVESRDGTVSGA

C=C1C(=O)OC2C1CC/C(C)=C/CCC1(C)OC21 (stereo not given)
AC50 [1]: 25.1 µM (inconclusive)

C[C@H](NC(=O)c1[nH]cnc1C(=O)NCc1ccc(CNC(=O)OC(C)(C)C)cc1)C(=O)OCc1ccccc1
EC50 [2]: 19.4 µM (active)

CCOc1cc(/C=C2/C(=O)ON=C2C)ccc1OCc1ccccc1
EC50 [2]: 23 µM (inactive)

COc1c2c(cc3c1OCO3)C13C=CC(OC)CC1N(C2)CC3O (stereo not given)
AC50 [1]: 39.8 µM (inconclusive)

O=[N+]([O-])c1cc(Cl)cc(/C=N/Nc2nc3ccccc3s2)c1O
EC50 [3]: > 150 µM (not active) | EC50 [4]: 2.17 µM (active) | EC50 [5]: 7.64 µM (active) | CC50 [6]: 16.4 µM (active) | CC50 [7]: 10 µM (active) | IC50 [8]: 2.82 µM (active) | CC50 [9]: 10.4 µM (active)

C=CCN(CC=C)CC(O)Cn1c2ccccc2c2ccccc21 (stereo not given)
EC50 [10]: 9.06 µM (active) | AC50 [11]: > 120 µM (inactive) | AC50 [12]: 28.2 µM (inconclusive)

COc1cc(C)nc(N(Cc2ccccc2)S(=O)(=O)c2ccc(C)cc2)n1
EC50 [13]: > 29.9 µM (not active) | EC50 [14]: 6.93 µM (active)

CCOC(=O)c1c(N2C(=O)C=CC2=O)sc(C)c1C
IC50 [15]: > 66.6 µM (inactive) | EC50 [16]: 4.22 µM (active)

C=CCOc1ccc2c(c1)c(S(=O)(=O)c1ccc(C)cc1)cn2COC
EC50 [13]: > 29.9 µM (not active) | EC50 [14]: 1.16 µM (active)

CCc1ccccc1NC(=O)c1cc2sccc2n1C
EC50 [10]: 12 µM (active)

CCN(CC)CCN(C(=O)CN1C(=O)c2ccccc2C1=O)c1nc2cc3c(cc2s1)OCO3
EC50 [17]: > 53 µM (inactive) | EC50 [18]: > 60 µM (not active) | EC50 [19]: 0.349 µM (active) | EC50 [20]: < 0.1 µM (active) | IC50 [21]: > 47.1 µM (inactive)

Cc1cccc(OCC(O)Cn2c(=N)n(Cc3ccccc3)c3ccccc32)c1 (stereo not given)
CC50 [6]: > 20 µM (active) | CC50 [7]: 23.3 µM (active) | IC50 [22]: 6.92 µM (active)

Cc1ccc2c(c1)C(O)(c1c(C)[nH]c3ccccc13)C(=O)N2 (stereo not given)
EC50 [10]: 8.82 µM (active)

CNC(=O)[C@H](C)/C=C(\c1cccnc1)C(NC(=O)OCc1ccccc1)c1ccc(C(=O)OC)cc1 (stereo not given in full)
AC50 [1]: 20 µM (inconclusive)

CC(C)c1ccc(C2=C(O)C(=O)c3ccccc3C2=O)cc1
EC50 [23]: 67.1 µM (active) | EC50 [24]: 1.11 µM (active) | CC50 [9]: 16.5 µM (active)

Cc1ccc(S(=O)(=O)N(C)CC(=O)ONC(=N)c2cccc([N+](=O)[O-])c2)cc1
EC50 [13]: > 29.9 µM (not active) | EC50 [14]: 12.1 µM (not active)

COc1cc(C(=O)N/N=C/c2cc([N+](=O)[O-])cs2)cc(OC)c1OC
IC50 [25]: > 80 µM (inactive) | CC50 [6]: > 20 µM (active) | CC50 [7]: 0.724 µM (active) | IC50 [8]: 0.87 µM (active) | CC50 [9]: 5.03 µM (active)

Cc1cc(Br)ccc1OCCCCN1CCCCC1
CC50 [6]: > 20 µM (active) | CC50 [7]: > 40 µM (active) | EC50 [18]: > 60 µM (not active) | EC50 [20]: 0.75 µM (active)
